US20230265483A1, “METHODS FOR TESTING ANDEXANET POTENCY” (Alexion Pharmaceuticals, Inc., priority 2020, published 2023)

Tests used:
bovine fXa (BFXa) = target: T1, bovine fXa (BFXa) (Bos taurus, UniProt P00743); assay: Inhibition of bovine fXa by betrixaban; type: biochemical; conditions: in words
T1 construct: purchased Hyphen BioMed (France) BE1010/BE101K

BFXa = target: T2, BFXa (Bos taurus, UniProt P00743); assay: Direct potency assay with BFXa/betrixaban mixture; type: biochemical, bovine; conditions: BFXa (1×)/betrixaban (1×) vs HFXa (1×)/betrixaban (1×), no andexanet
T2 construct: purchased Hyphen BioMed (France) BE1010/BE101K
T2 sequence (P00743 234-492 limits assumed): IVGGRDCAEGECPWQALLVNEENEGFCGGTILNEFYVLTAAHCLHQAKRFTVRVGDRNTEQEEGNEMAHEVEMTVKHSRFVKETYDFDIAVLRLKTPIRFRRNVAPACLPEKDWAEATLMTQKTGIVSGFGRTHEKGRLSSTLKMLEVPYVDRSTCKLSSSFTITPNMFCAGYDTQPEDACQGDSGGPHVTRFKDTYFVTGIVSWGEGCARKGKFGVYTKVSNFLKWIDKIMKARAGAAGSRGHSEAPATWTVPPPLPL
T2 sequence (P00743 41-180 partner limits assumed): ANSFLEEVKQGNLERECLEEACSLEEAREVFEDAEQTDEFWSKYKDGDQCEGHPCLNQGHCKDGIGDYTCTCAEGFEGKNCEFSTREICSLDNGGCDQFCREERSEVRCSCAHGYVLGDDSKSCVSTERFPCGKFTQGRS
Procedure: The stock solutions for HFXa, BFXa and betrixaban were first prepared separately. FXa/betrixaban mixture was prepared by mixing different volumes of the stock solutions of FXa and betrixban, resulting in HFXa/betrixaban or BFXa/betrixaban. The FXa/betrixaban mixture (50 μL) was added to the reaction mixture as described in the direct potency assay. The HFXa (1×)/betrixaban (1×) mixture (O) was used as a control.
Preparation of fXa and Betrixaban (fXa Inhibitor) • a) Dilute the fXa to 50 μg/mL then further dilute to 1.0 μg/mL in assay buffer. • b) Dilute fXa inhibitor (226 μg/mL betrixaban stock) to 40 ng/mL in assay buffer as described in the table below. • c) Add equal volumes of diluted fXa and fXa inhibitor (betrixaban) into an appropriate container by combining 6 mL of FXa at 1.0 μg/mL and 6 mL of fXa inhibitor at 40 ng/mL. Mix well. • 4. Preparation of fXa and fXa Inhibitor Controls • a) Prepare the fXa control by mixing 100 μL of diluted fXa with 300 μL of assay buffer. • b) Prepare fXa inhibitor (betrixaban) control by mixing 200 μL of the fXa inhibitor mixture and 200 μL assay buffer. • 5. Transfer 50 μL/well of reference standard (RS), assay control (CTRL) and test samples (TS) to the assay plate. • 6. […] Read the microplate at 405 nm as the test wavelength and 490 nm as the reference wavelength. • 14. […]

T1 sequence (P00743 234-492 limits assumed): as the sequence (P00743 234-492 limits assumed) above
T1 sequence (P00743 41-180 partner limits assumed): as the sequence (P00743 41-180 partner limits assumed) above

potency of inhibition of bovine fXa compared with human fXa (bovine fXa (BFXa)): less potent | inhibition of BFXa activity (background in absence of andexanet) (BFXa): less inhibition of BFXa activity
SMILES: COc1ccc(NC(=O)c2ccc(C(=N)N(C)C)cc2)c(C(=O)Nc2ccc(Cl)cn2)c1 [betrixaban]
